From BigSolDB 2.1

CCOc1ccc2ccccc2c1C(=O)O
solubility (mole fraction)
Details	278.15 K	283.15 K	288.15 K	293.15 K	298.15 K	303.15 K	308.15 K	313.15 K	318.15 K	323.15 K
in ethanol	0.0268	0.0325	0.0392	0.0469	0.0565	0.0688	0.0836	0.101	0.119	0.136
in methanol	0.0304	0.037	0.0443	0.0552	0.0671	0.0821	0.0951	0.114	0.134	0.151
in n-propanol	0.0212	0.0236	0.0283	0.0345	0.0424	0.0511	0.0632	0.0779	0.092	0.114
